In general, melting point refers to the temperature, or range, at which the solid turns liquid.

Regarding `CCNCc1nc2sc3c(c2c(-c2ccc(OC)c(OC)c2)c1Cl)CCN(Cc1ccccc1)C3` [Example 1B, 7-benzyl-3-chloro-4-(3,4,-dimethoxyphenyl)-2-ethylaminomethyl-5,6,7,8-tetrahydrothieno[2,3-b:5,4-c′]dipyridine], the melting point is 135 to 136 °C.

Compound `CCN(CC)Cc1nc2sc3c(c2c(-c2ccc(OC)c(OC)c2)c1Cl)CCN(Cc1ccccc1)C3` [Example 2B, 7-benzyl-3-chloro-2-(N,N-diethylaminomethyl)-4-(3,4-dimethoxyphenyl)-5,6,7,8-tetrahydrothieno[2,3-b:5,4-c′]dipyridine] came in with a melting point of 150 to 151 °C.

In the case of `CCOC(=O)c1c(CN2CCC(C(=O)OCC)CC2)nc2sc3c(c2c1-c1ccc(OC)c(OC)c1)CCN(C(=O)c1ccc(Cl)cc1)C3` [Example 3A, ethyl 7-(4-chlorobenzoyl)-4-(3,4-dimethoxyphenyl)-2-(4-ethoxycarbonylpiperidinomethyl)-5,6,7,8-tetrahydrothieno-[2,3-b:5,4-c′]dipyridine-3-carboxylate], the melting point was in the range of 99 to 101 °C.

In turn, `COc1ccc(-c2c(Cl)c(CNC(C)(C)C)nc3sc4c(c23)CCN(Cc2ccccc2)C4)cc1OC` [Example 3B, 7-benzyl-2-(tert-butylaminomethyl)-3-chloro-4-(3,4-dimethoxyphenyl)-5,6,7,8-tetrahydrothieno[2,3-b:5,4-c′]dipyridine] had a melting point of 134 to 135 °C.

As to `CCOC(=O)c1c(CN(CC)CC)nc2sc3c(c2c1-c1ccc(Cl)cc1)CCN(C(=O)c1ccccc1)C3` [Example 4A, ethyl 7-benzoyl-4-(4-chlorophenyl)-2-(N,N-diethylaminomethyl)-5,6,7,8-tetrahydrothieno[2,3-b:5,4-c′]dipyridine-3-carboxylate], the melting point fell in the range of 177 to 178 °C.

For the compound `CCC(C)(C)NCc1nc2sc3c(c2c(-c2ccc(OC)c(OC)c2)c1Cl)CCN(Cc1ccccc1)C3` [Example 4B, 2-(tert-amylaminomethyl)-7-benzyl-3-chloro-4-(3,4-dimethoxyphenyl)-5,6,7,8-tetrahydrothieno[2,3-b:5,4-c′]dipyridine], the melting point lay in the range of 128 to 129 °C.

`COc1ccc(-c2c(Cl)c(CNC3CC3)nc3sc4c(c23)CCN(Cc2ccccc2)C4)cc1OC` [Example 5B, 7-benzyl-3-chloro-2-(cyclopropylaminomethyl)-4-(3,4-dimethoxyphenyl)-5,6,7,8-tetrahydrothieno[2,3-b:5,4-c′]dipyridine] returned a melting point of 131 to 132 °C.

For the compound `CCOC(=O)c1c(CN(CC)CC)nc2sc3c(c2c1-c1ccc(Cl)cc1)CCNC3` [Example 6A, ethyl 4-(4-chlorophenyl)-2-(N,N-diethylaminomethyl)-5,6,7,8-tetrahydrothieno[2,3-b:5,4-c′]dipyridine-3-carboxylate], the melting point lay within 104 to 106 °C.

On to `COc1ccc(-c2c(Cl)c(COc3ccccn3)nc3sc4c(c23)CCN(Cc2ccccc2)C4)cc1OC` [Example 6B, 7-benzyl-3-chloro-4-(3,4-dimethoxyphenyl)-2-(2-pyridyloxymethyl)-5,6,7,8-tetrahydrothieno[2,3-b:5,4-c′]dipyridine], for which the melting point lay within 165 to 167 °C.

With `COc1ccc(-c2c(Cl)c(CNC(C)(C)C)nc3sc4c(c23)CCN(C(=O)c2ccccc2)C4)cc1OC` [Example 8B, 7-benzoyl-2-(tert-butylaminomethyl)-3-chloro-4-(3,4-dimethoxyphenyl)-5,6,7,8-tetrahydrothieno[2,3-b:5,4-c′]dipyridine], the melting point fell in the range of 204 to 205 °C.

`CCOC(=O)c1c(CN(CC)CC)nc2sc3c(c2c1-c1ccc(OC)c(OC)c1)CCN(S(=O)(=O)c1ccccc1)C3` [Example 9A, ethyl 7-benzenesulfonyl-2-(N,N-diethylaminomethyl)-4-(3,4-dimethoxyphenyl)-5,6,7,8-tetrahydrothieno[2,3-b:5,4-c′]dipyridine-3-carboxylate] registered a melting point of 161 to 162 °C.

For `COc1cc(-c2c(Cl)c(CNC(C)(C)C)nc3sc4c(c23)CCN(C(=O)c2ccccc2)C4)ccc1OC(C)C` [Example 9B, 7-benzoyl-2-(tert-butylaminomethyl)-3-chloro-4-(4-isopropoxy-3-methoxyphenyl)-5,6,7,8-tetrahydrothieno[2,3-b:5,4-c′]dipyridine], the melting point was 165 to 166 °C.

In turn, `COc1ccc(C2(Cl)CC(CNC(C)(C)C)=Nc3sc4c(c32)CCNC4)cc1OC` (centres unmarked) [Example 10B, 2-(tert-butylaminomethyl)-4-chloro-4-(3,4-dimethoxyphenyl)-5,6,7,8-tetrahydrothieno(2,3-b:5,4-c′]dipyridine] displayed a melting point of 162 to 163 °C.

`COc1cc(-c2c(Cl)c(CNC(C)(C)C)nc3sc4c(c23)CCNC4)ccc1OC(C)C` [Example 11B, 2-(tert-butylaminomethyl)-3-chloro-4-(4-isopropoxy-3-methoxyphenyl)-5,6,7,8-tetrahydrothieno[2,3-b:5,4-c′]dipyridine] registered a melting point of 157 to 158 °C.

In the case of `COc1ccc(-c2c(Cl)c(CN3CCN(C(C)=O)CC3)nc3sc4c(c23)CCN(Cc2ccccc2)C4)cc1OC` [Example 14B, 2-(4-acetylpiperazin-1-ylmethyl)-7-benzyl-3-chloro-4-(3,4-dimethoxyphenyl)-5,6,7,8-tetrahydrothieno[2,3-b:5,4-c′]dipyridine], the melting point lay within 183 to 184 °C.

Take `CCOC(=O)c1c2c(cn1CN(CC)CC)C1=C(NC(C(=O)OCc3ccccc3)CC1)[SH]2c1ccc(OC)c(OC)c1` (centres unmarked) [Example 16A, ethyl 2-benzyloxycarbonyl-8-(3,4-dimethoxyphenyl)-6-diethylaminomethyl-2,3-dihydro-1H-pyrrolo[3′,4′:4,5]-thieno[2,3-b]pyridine-7-carboxylate]: the melting point lay in the range of 142 to 143 °C.

In turn, `CCOC(=O)c1c2c(cn1Cn1cncn1)C1=C(NC(C(=O)OCc3ccccc3)CC1)[SH]2c1ccc(OC)c(OC)c1` (centres unmarked) [Example 17A, ethyl 2-benzyloxycarbonyl-8-(3,4-dimethoxyphenyl)-2,3-dihydro-6-(1,2,4-triazol-1-ylmethyl)-1H-pyrrolo[3′,4′:4,5]thieno[2,3-b]pyridine-7-carboxylate] came in with a melting point of 166 to 167 °C.

With `COc1ccc(-c2c(Cl)c(CNS(=O)(=O)c3ccccc3)nc3sc4c(c23)CCN(Cc2ccccc2)C4)cc1OC` [Example 19B, 7-benzyl-3-chloro-4-(3,4-dimethoxyphenyl)-2-phenylsulfonylaminomethyl-5,6,7,8-tetrahydrothieno[2,3-b:5,4-c′]dipyridine], the melting point fell in the range of 153 to 154 °C.

In turn, `CCOC(=O)c1c(Cn2cncn2)nc2sc3c(c2c1-c1ccc(OC)c(OC)c1)CCN(C(=O)c1ccccc1)C3` [Example 20A, ethyl 7-benzoyl-4-(3,4-dimethoxyphenyl)-5,6,7,8-tetrahydro-2-(1,2,4-triazol-1-ylmethyl)thieno[2,3-b:5,4-c′]dipyridine-3-carboxylate] displayed a melting point of 193 to 194 °C.

The compound `COc1ccc(-c2c(Cl)c(CNC(=O)Cn3cncn3)nc3sc4c(c23)CCN(Cc2ccccc2)C4)cc1OC` [Example 20B, 7-benzyl-3-chloro-4-(3,4-dimethoxyphenyl)-5,6,7,8-tetrahydro-2-(1,2,4-triazol-1-ylacetylaminomethyl)thieno[2,3-b:5,4-c′]dipyridine] showed a melting point of 101 to 102 °C.

Source of the values: US6403606B1, “Thienopyridine derivatives and their use” (Takeda Chemical Industries Ltd., priority 1996, dated 2002).
